Earlier results in patent publication US20050163837A1, “Rosiglitazone formulations” (priority 2003, published 2005).

How the values were obtained:
[1] = test system: mouse models of diabetes
[2] = test system: animal models of type 2 diabetes

Question: Which “development of overt diabetes” value ([1]; mouse models) does the source give for CN(CCOc1ccc(CC2SC(=O)NC2=O)cc1)c1ccccn1 (stereo not drawn) [Rosiglitazone, 5-[4-[2-(N-methyl-N-(2-pyridyl)amino)ethoxy]benzyl]thiazolidine-2,4-dione] here?
Answer: prevent the development of overt diabetes

Question: What about the “blood glucose levels and hyperinsulinemia” value ([1]; several mouse models of diabetes) of the same compound?
Answer: reduce blood glucose levels and hyperinsulinemia

Question: And the “induction of hypoglycemia or impaired glucose tolerance” value [2]?
Answer: did not induce hypoglycemia or impaired glucose tolerance
